The source of these data is patent US11964960B2 (Cornell University, priority 2018, dated 2024).

For one data set, the target named is T1, S1P2 (Homo sapiens, UniProt O95136).
T1 construct: Flag; expressed in transfected cells; host or cells: Chinese hamster ovary (CHO) cells, doxycycline-inducible (CHO-S1P2-FL / CHO-S1PR2 FL)
The data set is described as follows: GLISA RhoA activation - antagonist assay. The data set is classed as cell-based. To be noted: CHO-S1P2-FL cells; for inhibition at 1 µM: 1 μM compound; for pIC50: 1 hour compound incubation, then for 5 min. The protocol: GLISA RhoA Activation—Antagonist Assay
GLISA assays were performed using RhoA (BK124) activation kit purchased from Cytoskeleton Inc., Denver, CO Doxycycline-inducible Flag-tag S1P2 expressing Chinese hamster ovary (CHO) cells (CHO-S1P2-FL) were seeded in a 6-well plate, 1.5×10^5 cells per well. Cells were stimulated with […] of Doxycycline to induce S1P2 expression in serum free IMDM media with 0.1% BSA/PBS. Following day, cells were stimulated with the compounds described herein (1 nM-10 μM) or 1 μM JTE-013 for 1 hour at 37° C. Following compound incubation, cells were washed with PBS×3 and induced with 100 nM […] for 5 min. […] Protein concentration was examined using GLISA—Precision Red Advanced Protein assay reagent as described in assay manual. Lysates were immobilized on GTP-bound capture plate and GLISA assay was performed based on manufacture recommendations as reported previously.

The target of data set [1] is T2, S1PR2 (Homo sapiens, UniProt O95136). The experiment in a line: FLIPR calcium activation - antagonist assay. On the set-up: Flag; expressed in transfected cells; host or cells: Chinese hamster ovary (CHO) cells, doxycycline-inducible (CHO-S1P2-FL / CHO-S1PR2 FL). To be noted: CHO-S1PR2 FL cells, 1 hour compound incubation. It counts as cell-based. The protocol: FLIPR Calcium Activation—Antagonist Assay
An assay was performed using Fluo-4 NW Calcium activation kit (#F36206) purchased from Molecular Probes/Life Technologies, Grand Island, NY. Calcium assay was performed according to the manufacturer's instructions. Briefly, CHO-S1PR2 FL cells (5×10^4 cells (for 384 well plate) or 7.5×10^4 cells (for 96 well plate)) were seeded 24 hours prior to experiment in serum free IMDM media supplemented with 0.1% fatty acid free BSA/PBS (SFM). After starvation, cells were stimulated with the compounds described herein (1 nM-10 μM) for 1 hour in SFM at room temperature. Cells were then washed with PBS and prepared for Calcium induction assay as instructed in Fluo-4 NW Calcium activation kit protocol. For calcium induction, 100 nM […] or 1 μM ATP were added in ligand plate places in the Hamamatsu FDSS6000 drug screening system. Ligand was added in 15 seconds intervals for 15 min and signal ratio of […] was measured using the Hamamatsu FDSS6000 instrument.
Target sequence in this assay (O95136 whole entry, species assumed): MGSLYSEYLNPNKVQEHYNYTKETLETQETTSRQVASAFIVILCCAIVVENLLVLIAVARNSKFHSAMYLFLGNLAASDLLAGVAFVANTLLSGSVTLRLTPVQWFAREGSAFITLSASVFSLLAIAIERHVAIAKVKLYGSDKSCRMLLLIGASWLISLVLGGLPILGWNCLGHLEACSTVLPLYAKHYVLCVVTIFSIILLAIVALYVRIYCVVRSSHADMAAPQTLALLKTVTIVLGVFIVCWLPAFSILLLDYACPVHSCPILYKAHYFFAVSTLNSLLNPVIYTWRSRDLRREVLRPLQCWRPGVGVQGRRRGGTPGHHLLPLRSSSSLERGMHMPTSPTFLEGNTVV

The target of data set [2] is T2, S1PR2. The settings on record: Bioorg. Med. Chem. 21: 5373-5382 (2013); cited from earlier work.
Target sequence in this assay (O95136 whole entry): as the sequence (O95136 whole entry, species assumed) above
For data set [3] the following is noted: cited from earlier work.

The structures appear in SMILES notation. pIC50: −log10 of the molar value.

T1 sequence (O95136 whole entry, species assumed): as above

Consider `C#Cc1cc(C)c(=O)n(CC(=O)c2cnn(Cc3ccccc3)c2C)c1` [Example 42, 1-(2-(1-Benzyl-5-methyl-1H-pyrazol-4-yl)-2-oxoethyl)-5-ethynyl-3-methylpyridin-2(1H)-one], for which 1 µM produced 64% inhibition against S1P2. Moreover, the pIC50 (usually the negative decadic logarithm of the IC50, by convention in mol/L) at S1PR2 [1] is 6.25.

Turning to `C#Cc1ccc(=O)n(CC(=O)c2cnn(Cc3ccccc3)c2C)n1` [Example 43, 2-(2-(1-Benzyl-5-methyl-1H-pyrazol-4-yl)-2-oxoethyl)-6-ethynylpyridazin-3(2H)-one], on S1P2, the inhibition (usually the percentage by which the read-out fell short of the control) at 1 µM came to 70%. Moreover, the values for the pIC50 against S1P2 and on S1PR2 [1] were 6.70 and 6.53, respectively. For the compound `COc1cc(Br)cn(CC(=O)c2cnn(Cc3ccccc3)c2C)c1=O` [Example 41, 1-(2-(1-Benzyl-5-methyl-1H-pyrazol-4-yl)-2-oxoethyl)-5-bromo-3-methoxypyridin-2(1H)-one], at 1 µM the inhibition on S1P2 was 63%. Besides, the pIC50 on S1PR2 [1] is 6.16. For `Cc1cc(Br)cn(CC(=O)c2cnn(Cc3ccccc3)c2C)c1=O` [Example 39, 1-(2-(1-Benzyl-5-methyl-1H-pyrazol-4-yl)-2-oxoethyl)-5-bromo-3-methylpyridin-2(1H)-one] the same measures were 69% and 6.44. At S1P2, `Cc1c(C(=O)Cn2cc(Br)ccc2=O)cnn1Cc1ccccc1` [Compound 27, 1-(2-(1-benzyl-5-methyl-1H-pyrazol-4-yl)-2-oxoethyl)-5-bromopyridin-2(1H)-one] showed an inhibition at 1 µM of 92% and a pIC50 of 8.31. Also, the pIC50 on S1PR2 [1] was 7.96. Compound `C#Cc1ccn(CC(=O)c2cnn(Cc3ccccc3)c2C)c(=O)c1` [Example 38] had an inhibition at 1 µM on S1P2 of 17%. Besides, on S1PR2 [1], the negative logarithm of the IC50 (pIC50) is 5.44. For the compound `Cc1cc(C(=O)Cn2cc(Br)ccc2=O)c(C)n1Cc1ccccc1` [Compound 1, 1-(2-(1-benzyl-2,5-dimethyl-1H-pyrrol-3-yl)-2-oxoethyl)-5-bromopyridin-2(1H)-one], on S1P2, the inhibition at 1 µM is 87% and the pIC50 is 7.28. Also, at S1PR2 [1], the pIC50 is 7.24. As to `Cc1cc(C(=O)Cn2cc(C#N)ccc2=O)c(C)n1Cc1ccccc1` [CYM-5520], the “activity at the S1PR2 receptor” value at S1PR2 [2] was “weak allosteric agonist”. In addition, in data set [3], the aqueous solubility result is recorded as “poor aqueous solubility”.

As for `Cc1c(C(=O)Cn2cc(Br)ccc2=O)cnn1Cc1cccnc1` [Compound 33, 5-bromo-1-(2-(5-methyl-1-(pyridin-3-ylmethyl)-1H-pyrazol-4-yl)-2-oxoethyl)pyridin-2(1H)-one], the inhibition at 1 µM against S1P2 stood at 14%. The pIC50 on S1PR2 [1] was 5.25.

On S1P2, `Cc1c(C(=O)Cn2cc(Br)ccc2=O)cnn1Cc1cccc(C(=O)O)c1` [Compound 32, 3-((4-(2-(5-bromo-2-oxopyridin-1(2H)-yl)acetyl)-5-methyl-1H-pyrazol-1-yl)methyl)benzoic acid] returned an inhibition at 1 µM of less than 10%. Moreover, the pIC50 at S1PR2 [1] is 5.06. At S1P2, `C#Cc1ccc(=O)n(CC(=O)c2cnn(Cc3cccc(C(=O)O)c3)c2C)c1` [Example 36, 3-((4-(2-(5-Ethynyl-2-oxopyridin-1(2H)-yl)acetyl)-5-methyl-1H-pyrazol-1-yl)methyl)benzoic Acid] registered an inhibition at 1 µM of less than 10%. The pIC50 at S1PR2 [1] is 5.01. `C#Cc1ccc(=O)n(CC(=O)c2cnn(Cc3ccccc3)c2C)c1` [Compound 29, 1-(2-(1-benzyl-5-methyl-1H-pyrazol-4-yl)-2-oxoethyl)-5-ethynylpyridin-2(1H)-one] gave an inhibition at 1 µM at S1P2 of 79%. For the same compound, the pIC50 was 7.16 against S1P2 and 7.64 at S1PR2 [1]. For `C=Cc1ccc(=O)n(CC(=O)c2cnn(Cc3ccccc3)c2C)c1` [Compound 34, 1-(2-(1-benzyl-5-methyl-1H-pyrazol-4-yi)-2-oxoethyl)-5-vinylpyridin-2(1H)-one] the same measures were 79%, 7.09 and 6.82.

As to `Cc1cc(=O)n(CC(=O)c2cnn(Cc3ccccc3)c2C)cc1Br` [Example 40, 1-(2-(1-Benzyl-5-methyl-1H-pyrazol-4-yl)-2-oxoethyl)-5-bromo-4-methylpyridin-2(1H)-one], the inhibition at 1 µM on S1P2 is 67%. Further, the pIC50 on S1PR2 [1] was 6.40. For `Cc1c(C(=O)Cn2ccc(Br)cc2=O)cnn1Cc1ccccc1` [Example 37, 1-(2-(1-Benzyl-5-methyl-1H-pyrazol-4-yl)-2-oxoethyl)-4-bromopyridin-2(1H)-one] the same measures were 15% and 5.36. At S1P2, `C#Cc1ccc(=O)n(CC(=O)c2cnn(Cc3cccnc3)c2C)c1` [Compound 35, 5-ethynyl-1-(2-(5-methyl-1-(pyridin-3-ylmethyl)-1H-pyrazol-4-yl)-2-oxoethyl)pyridin-2(1H)-one] displayed an inhibition at 1 µM of 69%. Besides, the pIC50 at S1PR2 [1] was 6.41. Consider `Cc1cc(C(=O)Cn2cc(C#N)ccc2=O)c(C)n1Cc1ccc2c(c1)OCO2` [Example 93, 1-(2-(1-(Benzo[d][1,3]dioxol-5-ylmethyl)-2,5-dimethyl-1H-pyrrol-3-yl)-2-oxoethyl)-6-oxo-1,6-dihydropyridine-3-carbonitrile], for which, at S1P2, at 1 µM the inhibition was 10%.

For `C#Cc1ccc(=O)n(C(C)C(=O)c2cnn(Cc3ccccn3)c2C)c1` (stereo not drawn) [Example 77], the pIC50 at S1P2 is 7.00. Regarding `O=C(Cn1cc(Br)ccc1=O)N1CCC(c2ccc(F)cc2)C1` (stereo not drawn) [Example 67, 5-Bromo-1-(2-(3-(4-fluorophenyl)pyrrolidin-1-yl)-2-oxoethyl)pyridin-2(1H)-one], the inhibition at 1 µM at S1P2 came to 42%.

`Cc1cc(C(=O)C(C)n2cc(Br)ccc2=O)c(C)n1Cc1cccc(F)c1` (stereo not drawn) [Example 62, 5-Bromo-1-(1-(1-(3-fluorobenzyl)-2,5-dimethyl-1H-pyrrol-3-yl)-1-oxopropan-2-yl)pyridin-2(1H)-one] showed an inhibition at 1 µM at S1P2 of 11%.

For the compound `Cc1cc(C(=O)Cn2cc(C(C)(C)C)ccc2=O)c(C)n1Cc1ccccc1` [Example 53, 1-(2-(1-Benzyl-2,5-dimethyl-1H-pyrrol-3-yl)-2-oxoethyl)-5-(tert-butyl)pyridin-2(1H)-one], the pIC50 on S1P2 was less than 5.00. In turn, `C=Cc1ccc(=O)n(CC(=O)c2cnn(Cc3ccccc3)c2C(F)F)c1` [Example 87, 1-(2-(1-Benzyl-5-(difluoromethyl)-1H-pyrazol-4-yl)-2-oxoethyl)-5-vinylpyridin-2(1H)-one] had a pIC50 against S1P2 of 6.97. Turning to `Cc1nc(C(=O)Cn2cc(Br)ccc2=O)c(C)n1Cc1ccc(F)cc1` [Compound 30, 5-bromo-1-(2-(1-(4-fluorobenzyl)-2,5-dimethyl-1H-imidazol-4-yl)-2-oxoethyl)pyridin-2(1H)-one], at S1P2, the inhibition at 1 µM was 64% and the pIC50 was 6.23.

Take `C#Cc1ccc(=O)n(CC(=O)c2cc(C)n(Cc3ccccc3)c2C)c1` [Compound 3, 1-(2-(1-benzyl-2,5-dimethyl-1H-pyrrol-3-yl)-2-oxoethyl)-5-ethynylpyridin-2(1H)-one]: at S1P2, 1 µM produced 69% inhibition and the pIC50 was 6.87. Moreover, the pIC50 at S1PR2 [1] was 7.05. Compound `Cc1cc(C(=O)C(C)n2cc(Br)ccc2=O)c(C)n1CC1CCOCC1` (stereo not drawn) [Compound 10, 5-bromo-1-(1-(2,5-dimethyl-1-((tetrahydro-2H-pyran-4-yl)methyl)-1H-pyrrol-3-yl)-1-oxopropan-2-yl)pyridin-2(1H)-one] gave an inhibition at 1 µM against S1P2 of 39%. Compound `C#Cc1ccc(=O)n(C(C)C(=O)c2cnn(Cc3ccc(F)cc3)c2C)n1` (stereo not drawn) [Example 74, 6-Ethynyl-2-(1-(1-(4-fluorobenzyl)-5-methyl-1H-pyrazol-4-yl)-1-oxopropan-2-yl)pyridazin-3(2H)-one] had a pIC50 against S1P2 of 7.34. The same measure, in the same setting: the result for `C=Cc1ccc(=O)n(CC(=O)c2cnn(Cc3ccccn3)c2CC)c1` [Example 80, 1-(2-(5-Ethyl-1-(pyridin-2-ylmethyl)-1H-pyrazol-4-yl)-2-oxoethyl)-5-vinylpyridin-2(1H)-one] reads 7.01.
